Results published in US8946426B2, “Substituted bicyclic heterocyclic compounds as gamma secretase modulators” (Janssen Pharmaceuticals, Inc., priority 2009, dated 2015).

What was measured:
Aβ42 [1] = experiment: In vivo efficacy: Aβ42 lowering in brain after single oral dose (Table 8); details: mouse brain soluble fraction, ELISA, compared to untreated animals
Excerpt: To determine whether acute administration of an Aβ42 lowering agent would reduce Aβ42 levels in vivo, non-transgenic rodents, e.g. mice or rats were used. Alternatively, two to three month old Tg2576 mice expressing APP695 containing the “Swedish” variant can be used or a transgenic mouse model developed by Dr. Fred Van Leuven (K.U.Leuven, Belgium) and co-workers, with neuron-specific expression of a clinical mutant of the human amyloid precursor protein [V7171] (Moechars et al., 1999 J. Biol. Chem. 274, 6483). Young transgenic mice have high levels of Aβ in the brain but no detectable Aβ deposition. At approximately 6-8 months of age, the transgenic mice start to display spontaneous, progressive accumulation of β-amyloid (Aβ) in the brain, eventually resulting in amyloid plaques within the subiculum, hippocampus and cortex. Animals treated with the Aβ42 lowering agent were examined and compared to those untreated or treated with vehicle and brain levels of soluble Aβ42 and total Aβ would be quantitated by standard techniques, for example, using ELISA. Treatment periods varied from hours to days and were adjusted based on the results of the Aβ42 lowering once a time course of onset of effect could be established.
A typical protocol for measuring Aβ42 lowering in vivo is shown but it is only one of many variations that could be used to optimize the levels of detectable Aβ. For example, Aβ42 lowering compounds were formulated in 20% of Captisol® (a sulfobutyl ether of β-cyclodextrin) in water or 20% hydroxypropyl β cyclodextrin. The Aβ42 lowering agents were administered as a single oral dose or by any acceptable route of administration to overnight fasted animals. After four hours, the animals were sacrificed and Aβ42 levels were analysed.
Blood was collected by decapitation and exsanguinations in EDTA-treated collection tubes. Blood was centrifuged at 1900 g for 10 min at 4° C. and the plasma recovered and flash frozen for later analysis. The brain was removed from the cranium and hindbrain. The cerebellum was removed and the left and right hemisphere were separated. The left hemisphere was stored at −18° C. for quantitative analysis of test compound levels. The right hemisphere was rinsed with phosphate-buffered saline (PBS) buffer and immediately frozen on dry ice and stored at −80° C. until homogenization for biochemical assays.
Mouse brains were resuspended in 10 volumes of 0.4% DEA (diethylamine)/50 mM NaCl pH 10 (for non-transgenic animals) or 0.1% 3-[(3-cholamidopropyl)-dimethyl-ammonio]-1-propanesulfonate (CHAPS) in tris buffered saline (TBS) (for transgenic animals) containing protease inhibitors (Roche-11873580001 or 04693159000 per gram of tissue, e.g. for 0.158 g brain, add 1.58 ml of 0.4% DEA. All samples were sonicated for 30 sec on ice at 20% power output (pulse mode). Homogenates were centrifuged at 221.300×g for 50 min. The resulting high speed supernatants were then transferred to fresh tubes and were optionally further purified before the next step. A portion of the supernatant was neutralized with 10% 0.5 M Tris-HCl and this was used to quantify Aβtotal.
The obtained supernatants were purified with Water Oasis HLB reverse phase columns (Waters Corp., Milford, Mass.) to remove non-specific immunoreactive material from the brain lysates prior subsequent Aβ detection. Using a vacuum manifold, all solutions were passed through the columns at a rate of approximately 1 ml per minute, so the vacuum pressure was adjusted accordingly throughout the procedure. Columns were preconditioned with 1 ml of 100% MeOH, before equilibration with 1 ml of H2O. Non-neutralized brain lysates were loaded onto the columns. The loaded samples were then washed twice with the first wash performed with 1 ml of 5% MeOH, and the second wash with 1 ml of 30% MeOH. Finally, the Aβ was eluted from the columns and into 100×30 mm glass tubes, with a solution of 90% MeOH with 2% NH4OH. […]

Aβ42 [2] = experiment: Method 1: Aβ42 sandwich ELISA in supernatant of SKNBE2 cells carrying APP 695-wild type (Tables 7a, 7b); assay type: cell-based
Method in brief: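 IC50 values were derived with a 4-parameter equation, fitting either percent inhibition or percent of compound-free Aβ42 as the control. The Aβ42 came from supernatants of APP695 wild-type SKNBE2 cells treated for 18 hours. It was measured by ELISA with anti-Aβ42 capture, biotinylated 3D6 and TMB absorbance at 450 nm.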

[3] = Homo sapiens, SKNBE2, Table 7b, averaged IC50, non-linear regression of percentage of control vs log concentration, 4-parameter equation
[4] = Homo sapiens, Table 7a, SKNBE2 cells, compounds 18 h, XLfit 4-parameter fit of percent inhibition, top/bottom fixed to 100/0, hill slope 1
[5] = Table 7b, averaged IC50, non-linear regression of percentage of control vs log concentration, 4-parameter equation

| SMILES | IC50 (Aβ42 [2]; [3]) [nM] | IC50 (Aβ42 [2]; [4]) [nM] | IC50 (Aβ42 [2]; [5]) [nM] | Aβ42 (% Ctrl)_Mean (Aβ42 [1]) [% Ctrl] |
| --- | --- | --- | --- | --- |
| COc1cc(Nc2cccc3c2nc(CCC(F)(F)F)n3C)ccc1-c1ocnc1C [Compound 11] | 71 | 72 | – | 91 |
| COc1cc(Nc2cccc3c2nc(-c2ccc(F)cc2)n3C)ccc1-c1ocnc1C [Compound 12] | 21 | 23 | – | 56 |
| COc1cc(Nc2nc(C(F)(F)F)cn3cc(C)nc23)ccc1-c1cnc(C)o1 [Compound 170] | – | – | 3550 | 99 |
| COc1cc(Nc2cc(C(F)(F)F)nn3cc(C)nc23)ccc1-c1cnc(C)o1 [Compound 195] | – | – | 195 | 89 |

Continued, in another order:

| IC50 (Aβ42 [2]; [3]) [nM] | IC50 (Aβ42 [2]; [4]) [nM] | IC50 (Aβ42 [2]; [5]) [nM] | SMILES | Aβ42 (% Ctrl)_Mean (Aβ42 [1]) [% Ctrl] |
| --- | --- | --- | --- | --- |
| 355 | 358 | – | Cc1ncoc1-c1ccc(Nc2cccc3c2nc(-c2ccc(F)cc2)n3C)nc1 [Compound 10] | 106 |
| 9 | 11 | – | COc1cc(Nc2cccc3c2nc(-c2ccc(F)cc2)n3C)ccc1-c1cnc(C)o1 [Compound 16] | 58 |
| > 10000 | – | – | Cc1ncc(-c2ccc(Nc3nccc4c3nc(-c3ccc(F)cc3)n4C)cc2F)o1 [Compound 17] | 106 |
| 35 | – | – | Cc1ncc(-c2ccc(Nc3cccc4c3nc(-c3ccc(F)cc3)n4C(C)C)cn2)o1 [Compound 18] | 54 |
| – | – | 7 | COc1cccc(-c2nc3c(Nc4ccc(-c5cnc(C)o5)nc4)cc(F)cc3n2C)c1 [Compound 105] | 104 |
| – | – | 162 | COc1cc(Nc2cncc3c2nc(-c2ccc(F)cc2)n3C)ccc1-c1cnc(C)o1 [Compound 186] | 52 |
